The target in assay [1] is T1, Jmjd6 (Homo sapiens, UniProt Q6NYC1). Put plainly: Standard assay for Jmjd6 oxygenase activity: peptide hydroxylation by MALDI-TOF MS. Conditions: for activity (hydroxylation of LUC7-like2 peptides): Table 4, standard assay conditions; for mass shift relative to un-reacted peptide: incubation with Jmjd6, oxygen, ascorbate, Fe(II), 2OG, MALDI-TOF MS. Type of assay: biochemical. From the text:
All peptides tested as potential substrates of Jmjd6 were synthesised in-house by a Intavis MultiPep automated multiple synthesiser, using Tentagel amide resin (Intavis). Fluorenylmethoxycarbonyl (Fmoc)-protected amino acids were coupled with N,N′-diisopropylcarbodiimide (DIC)/1-hydroxybenzotriazole (HOBt). Cleavage of the completed peptides from the resin used CF3CO2H (TFA)/[…]. Predicted masses were confirmed by MALDI-TOF mass spectrometry. Standard assay conditions were used and are described above.
To determine whether U2AF65, CROP and LUC7-like2 were substrates of Jmjd6, multiple peptides were synthesized based on the RS domains of these proteins (FIG. 8). Initial peptides were synthesized with dimethylated arginine residues because it was speculated that Jmjd6 may be an arginine demethylase (FIG. 9). To determine whether any of these peptides were Jmjd6 substrates, incubations were carried out in the presence of oxygen, ascorbate, Fe(II) and 2OG; and peptide modifications were analyzed by MALDI-TOF MS.

Assay [2] has as its target T1, Jmjd6. In words: biochemical. The format is biochemical. The conditions noted are these: for rank of inhibition of Jmjd6 activity (in words) / inhibitory effect on Jmjd6 activity: 100 μM inhibitor, substrate peptide d; for hydroxylation of peptide d, as observed by MALDI: 100 μM compound added to assay; for enhancers of Jmjd6 activity (statement): chelating agents. On the procedure:
(§1) Standard assays consisted of the substrate mixture: peptide (100 μM), 2OG (500 μM), ascorbate (100 μM) in Tris (50 mM, pH 7.5); and the enzyme mixture: FeNH4SO4 (100 μM) and Jmjd6 (10 μM) in Tris (50 mM, pH 7.5). The reaction was initiated by mixing the substrate and enzyme mixtures and incubating at 37° C. for 30-60 minutes. The reaction was quenched by adding TFA to a final concentration of 0.1% and incubating on ice. Hydroxylation of the peptide was analysed by a MALDI TOF micro MX mass spectrometer (Waters Micromass); where the assay mixture (1 μL), along with α-cyano-4-hydroxycinnamic acid MALDI (CHCA) matrix in 60% acetonitrile/0.1% TFA (1 μL), was spotted directly onto the target plate. To determine whether modification of peptide was Jmjd6-dependent assays were performed omitting either 2OG or Fe(II). To determine whether Jmjd6 was inhibited by N-oxaloylglycine (NOG), NOG (24 mM) was added to the substrate component of the assay system.
To determine the pH profile of Jmd6 standard peptide assays were performed over a pH range of 6 to 9. Buffers used were piperazine-N,N′-bis(ethanesulfonic acid) (PIPES) (pH 6.0 and 6.5), 4-(2-hydroxyethyl)-1-piperazineethanesulfonic acid (HEPES) (pH 7.0 to 8.0) and N,N-bis(2-hydroxyethyl) glycine (BICINE) (pH 8.5 and 9.0). Inhibition assays were performed under identical conditions as described for the standard assays except either succinate (1 mM) or fumarate (1 mM) were included in the substrate mixture.
A control without inhibitor was included as a reference.

The subject of assay [3] is full-length Jmjd6 (SEQ ID NO:1), Jmjd6 residues 1 to 343, Jmjd6 residues 25 to 338. Conditions: peptide d 100 μM; FIGS. 18 and 19. The method, then: as §1
Where [4] appears, read: succinate (1 mM) or fumarate (1 mM) in substrate mixture.

Square brackets hold non-standard residues; d marks the D form. Ends that are not written are not given here. Arg(Me2s) = CN=C(NC)NCCC[C@H](N)C(=O)O Some results are limits rather than exact numbers.

Turning to 20 (NPKKSKSREHRR) [No 20], the “activity (hydroxylation of LUC7-like2 peptides)” value in assay [1] was “double”. With `O=C(O)CNC(=O)C(=O)O` [NOG, N-oxalylglycine], the “inhibitory of Jmjd6 lysyl hydroxylase activity (statement)” value (from here on “inhibitory … (statement)”) in assay [2] was “inhibitory”. Moreover, the “inhibition of hydroxylation of peptide d, as observed by MALDI” value in assay [2] (12 mM NOG in the assay mixture) is reported as “completely inhibited”. Moreover, the “inhibition of the +16 mass shift in peptide d” value in assay [2] (NOG 24 mM added to substrate component, FIG. 11 legend 120 mM) is recorded as “completely inhibited”. Besides, the inhibition at 100 µM in assay [2] (read-out: inhibitory effect on Jmjd6 activity) was below 20%. On to 22 (NPKKSKSKEHKK) [No 22], for which, in assay [1], the “activity (hydroxylation of LUC7-like2 peptides)” value is “double”.

`O=C(O)/C=C/C(=O)O` [fumarate]: in assay [2], the “inhibitory … (statement)” value is listed as “inhibitory” and the “rank of inhibition of Jmjd6 activity (in words)” value (“rank of inhibition … (in words)” for short) was “most potent inhibitors”. For the same compound, the “inhibition of the +16 mass shift in peptide d” value in assay [2] (setting [4]) is “completely inhibited”. “SHSRSRSR(Me2sym)DRKRRSRS (chain 1 SHSRSRS[Arg(Me2s)]; also: chains 1 and 2 form one continuous peptide) [No 9]”: the “mass shift relative to un-reacted peptide” value in assay [1] is “+16”. For the compound 23 (NPKRSRSKEHKK) [No 23], in assay [1], the “activity (hydroxylation of LUC7-like2 peptides)” value was “yes”. In the case of `O=C(O)c1c[nH]c2c(ccc3cccnc32)c1=O` [FG0041], in assay [2], the “inhibitory … (statement)” value is reported as “inhibitory” and the “inhibitory effect on Jmjd6 activity” value is around 50%. Take `O=C(O)c1ccnc(C(=O)O)c1` [pyridine-2,4-dicarboxylic acid]: in assay [2], the “inhibitory … (statement)” value was “inhibitory” and the “rank of inhibition … (in words)” value is recorded as “most potent inhibitors”.

Take `O=C(O)c1ccc(C(=O)O)nc1` [pyridine-2,5-dicarboxylic acid]: in assay [2], the “hydroxylation of peptide d, as observed by MALDI” value is recorded as 100% and the “enhancers of Jmjd6 activity (statement)” value is reported as “Enhancers”. As to `O=c1c(-c2ccc(O)cc2)coc2cc(O)cc(O)c12` [genistein], the “inhibitory … (statement)” value in assay [2] was “inhibitory”.

As to “SHSRSR(Me2sym)SRDRKRRSRS ({Ser-H2N-Ser-Arg-Ser-(R(Me2sym))}-SRDRKRRSRS) [No 10]”, the “mass shift relative to un-reacted peptide” value in assay [1] is on record as “+16”. 24 (NPKRSRSREHKK) [No 24]: the “activity (hydroxylation of LUC7-like2 peptides)” value in assay [1] was “yes”. On the same count and under the same terms, in the case of 21 (NPKKSKSKEHRR) [No 21] it was “double”. With “NPKRSRSR(Me2sym))EHRRHRSR (chain 1 NPKRSRS[Arg(Me2s)]; also: chains 1 and 2 form one continuous peptide) [No 1]”, the “mass shift relative to un-reacted peptide” value in assay [1] is “+16”. Take NPKRSRSREHRR [No 12]: the “hydroxylation of peptide d by truncated and full-length Jmjd6” value in assay [3] is on record as “hydroxylated”.

Regarding `O=C(O)CNC(=O)c1nc(Cl)c2ccccc2c1O` [FG2216], in assay [2], the “inhibitory … (statement)” value is listed as “inhibitory” and the “inhibitory effect on Jmjd6 activity” value is recorded as around 50%. Consider `O=C(O)c1cccc(C(=O)O)n1` [pyridine-2,6-dicarboxylic acid], for which, in assay [2], the “hydroxylation of peptide d, as observed by MALDI” value was found to be 100% and the “enhancers of Jmjd6 activity (statement)” value is listed as “Enhancers”. On to `O=C(O)CCC(=O)O` [succinate], for which, in assay [2], the “inhibitory … (statement)” value is “inhibitory” and the “rank of inhibition … (in words)” value is “most potent inhibitors”. Moreover, in assay [2] (setting [4]), the “inhibition of the +16 mass shift in peptide d” value is recorded as “completely inhibited”.

(Values after patent publication US20110130449A1, “Assay for Monitoring Activity of Jmjd6” (Isis Innovation Limited, priority 2008, published 2011).)
